Results: patent US20260306506A1, “PYRIDO[4,3-D]PYRIMIDINE COMPOUNDS” (Pfizer Inc., priority 2023, published 2026)

Assays:
[1] = tested on: SW620 (colorectal cancer cell line); assay: KRAS Cell Titer Glo (CTG) viability assay, SW620; assay type: cell-based; conditions: SW620, 7-day, geometric mean when n>1
From the text: (§1) The CellTiter-Glo® (CTG) Luminescent Cell Viability Assay is a homogeneous method of determining the number of viable cells in culture based on quantitation of the ATP present, an indicator of metabolically active cells. The CTG is designed for use with multi-well formats, making it ideal for automated high-throughput screening (HTS), cell proliferation and cytotoxicity assays. The homogeneous assay procedure involves adding the single reagent (CellTiter-Glo® Reagent) directly to cells cultured in serum-supplemented medium. Cell washing, removal of medium and multiple pipetting steps are not required. The system detects as few as 15 cells per well in a 384-well format in 10 minutes after adding reagent and mixing.
(§2) Cells are grown in humidified 5% CO2 incubator at 37° C. using the culture conditions outlined below. All cell culture media reagents were purchased from Gibco. Cell lines purchased from ATCC: H358 (non-small cell lung cancer cell line), SW620 (colorectal cancer cell line), PANC08.13 (RPM11640+10% FBS+10 units/ml Insulin, pancreatic cancer cell line). Test and control compounds are dispensed as nanoliter drops according to desired final concentrations in 0.1% DMSO using Echo Acoustic Dispenser onto 384 assay plates (Corning, Cat #3764) prior to cell seeding. Cells were seeded in 40 μL volume per well at the following cell densities (cells per well): H358 (300), SW620 (750), PANC 08.13 (600). Cells are incubated in the presence of compound for 7-days. Viability is determined on Day 7 using CellTiter-Glo® (CTG) Luminescent Cell Viability Assay (Promega). CTG is added to a final volume of 20 μl per well and incubated at room temperature for 15 minutes before luminescence is captured using an EnVision Reader with LUM384 US protocol. Data is analyzed using Activity Base to determine compound response and will be represented either as a percent effect (PCTEFF) or percent control (PCTOCTL) as described: Zero percent effect control (ZPE) (Negative control)—100% DMSO. Hundred percent effect (HPE) (Positive control)—1 μM Trametinib (GSK1120212, MEK inhibitor) (4 nl of 10 mM and 36 nl of DMSO per well). The following equations/nomenclature are used (% Effect; PCTEFF) and (% of Control; PCTOCTL): PCTEFF: 100*(Raw_Data_Value−HPE/ZPE−HPE), PCTOCTL: 100*Raw_Data_Value/User_Defined_Array), where the User_Defined_Array is either summarized HPE or ZPE.

[2] = tested on: H358 (non-small cell lung cancer cell line); assay: KRAS Cell Titer Glo (CTG) viability assay, H358; assay type: cell-based; conditions: H358, 7-day, geometric mean when n>1
From the text: as §1, §2

[3] = tested on: PANC08.13 (pancreatic cancer cell line); assay: KRAS Cell Titer Glo (CTG) viability assay, Panc08.13; assay type: cell-based; conditions: Panc08.13, 7-day, geometric mean when n>1
From the text: as §1, §2

WT GTPγS KRAS (aa1-185) = molecular target: T1, WT GTPγS KRAS (aa1-185) (Homo sapiens, UniProt P01116); assay: SPR binding (Biacore), GTPγS-loaded WT KRAS; conditions: for Kd: 10° C., geometric mean when n>1, read-out: KRasGTPgS SPR KD; for KRasGTPgS SPR t1/2: dissociative half-life, t1/2=0.693/koff
T1 construct: wild-type (WT) KRASGDP (aa1-185); made in house
From the text: (§3) No additional regeneration was used.
(§4) Compound dissociation was monitored for at least 3600 seconds. […] No additional regeneration was used.

[4] = molecular target: T2, G12C GTPγS KRAS (aa2-184) (Homo sapiens, UniProt P01116, G12C); assay: SPR binding (Biacore), GTPγS-loaded KRAS G12C; conditions: for Kd: 10° C., geometric mean when n>1, read-out: KRasGTPgS G12C SPR KD; for KRasGTPgS G12C SPR t1/2: dissociative half-life, t1/2=0.693/koff
T2 construct: G12CGDP KRAS (aa2-184); made in house
From the text: as §3, §4

[5] = molecular target: T3, G12D GTPγS KRAS (aa1-185) (Homo sapiens, UniProt P01116, G12D); assay: SPR binding (Biacore), GTPγS-loaded KRAS G12D; conditions: for Kd: 10° C., geometric mean when n>1, read-out: KRasGTPgS G12D SPR KD; for KRasGTPgS G12D SPR t1/2: dissociative half-life, t1/2=0.693/koff
T3 construct: G12DGDP KRAS (aa1-185); made in house
From the text: as §3, §4

[6] = molecular target: T4, G12V GTPγS KRAS (aa2-184) (Homo sapiens, UniProt P01116, G12V); assay: SPR binding (Biacore), GTPγS-loaded KRAS G12V; conditions: for Kd: 10° C., geometric mean when n>1, read-out: KRasGTPgS G12V SPR KD; for KRasGTPgS G12V SPR t1/2: dissociative half-life, t1/2=0.693/koff
T4 construct: G12VGDP KRAS (aa2-184); made in house
From the text: as §3, §4

[7] = tested on: pancreatic cancer, non-small cell lung cancer, and colorectal cancer; assay: CTG assay, summary statement for cancer cell lines; assay type: cell-based; conditions: alkylidenyl and/or haloalkylidenyl on R^1; statement in words
From the text: as §1
Cells are grown in humidified 5% CO2 incubator at 37° C. using the culture conditions outlined below. All cell culture media reagents were purchased from Gibco. […] Viability is determined on Day 7 using CellTiter-Glo® (CTG) Luminescent Cell Viability Assay (Promega). CTG is added to a final volume of 20 μl per well and incubated at room temperature for 15 minutes before luminescence is captured using an EnVision Reader with LUM384 US protocol. Data is analyzed using Activity Base to determine compound response and will be represented either as a percent effect (PCTEFF) or percent control (PCTOCTL) as described: Zero percent effect control (ZPE) (Negative control)—100% DMSO. […]

[8] = tested on: KRAS G12C, KRAS G12D, and KRAS G12V receptors; assay: SPR binding, summary statement for KRAS mutants; conditions: alkylidenyl and/or haloalkylidenyl on R^1; statement in words
From the text: as §3, §4

G12V GDP KRAS (aa2-184) = G12V GDP KRAS (aa2-184) (Homo sapiens, UniProt P01116, G12V); assay: biochemical
Procedure: (§5) The binding affinity and kinetics were measured by Surface Plasmon Resonance (SPR) using Biacore 8K or 8K+ (Cytiva, Marlborough, MA) instruments. Recombinant, C-terminal site-specific biotinylated, wild-type (WT) KRASGDP (aa1-185), G12DGDP KRAS (aa1-185), G12CGDP KRAS (aa2-184), G12VGDP KRAS (aa2-184), WT HRASGDP (aa2-184) and WT NRASGDP (aa2-185) proteins were purified in presence of 1 μM GDP. The GDP-loaded KRAS proteins then went through nucleotide exchange with GTPγS (a non-hydrolysable analog of GTP) in the presence of alkaline phosphatase beads to obtain WTGTPγS KRAS (aa1-185), G12DGTPγS KRAS (aa1-185), G12CGTPγS KRAS (aa2-184), G12VGTPγS KRAS (aa2-184), WT HRASGTPγS (aa2-184) and WT NRASGTPγS (aa2-185). Binding measurements were performed parallelly in sets of either WT/G12D/G12C/G12V KRAS or WT K/H/N RAS proteins in GDP- and/or GTPγS-loaded forms, respectively.
(§6) Biacore instrument was desorbed and docked with a Series S Sensor Chip SA. […] Compound binding kinetics were measured in either multi-cycle or single-cycle kinetic format.
(§7) A 2-fold, 10-point serial dilution of test compounds was set-up in a 96-well microplate (Greiner; Cat #650101) with a top concentration of either 10 μM or 100 μM. Binding kinetics was measured at 10° C. by injecting serial dilution of compounds onto both reference and RAS immobilized channels at a flow rate of 100 μL/min and association time of 90 seconds. Compound dissociation was monitored for at least 400 seconds during each cycle. […]
(§8) A 3-fold, 6-point serial dilution of compounds was set-up in a deep 96-well microplate (Greiner Bio; Cat #780201) with the highest concentration of 1 μM (concentration range: 0.004-1 μM). Binding kinetics was measured at 10° C. by injecting serial dilutions of compounds in increasing order onto reference as well as RAS immobilized channels at a flow rate of 100 μL/min and association time of 120 seconds. Compound dissociation was monitored for at least 3600 seconds. […]
(§9) Both MCK and SCK data were processed and analyzed using Biacore Insight evaluation software (Cytiva, Marlborough, MA)). […]

G12C GDP KRAS (aa2-184) = G12C GDP KRAS (aa2-184) (Homo sapiens, UniProt P01116, G12C); assay: biochemical
Procedure: as §5, §6, §7, §8, §9

G12D GDP KRAS (aa1-185) = G12D GDP KRAS (aa1-185) (Homo sapiens, UniProt P01116, G12D); assay: biochemical
Procedure: as §5, §6, §7, §8, §9

[9] = molecular target: T5, wild-type (WT) KRAS GDP (aa1-185) (Homo sapiens, UniProt P01116); assay: SPR binding (Biacore), GDP-loaded WT KRAS; conditions: 10° C., geometric mean when n>1
T5 construct: wild-type (WT) KRASGDP (aa1-185); made in house
From the text: as §3, §4

[10] = Homo sapiens, PANC-08-13, 168 h

Compound	IC50 [1]	IC50 [2]	IC50 [3, 10]	Kd (WT GTPγS KRAS (aa1-185))	KRasGTPgS SPR t1/2 (WT GTPγS KRAS (aa1-185))	Kd [4]	KRasGTPgS G12C SPR t1/2 [4]	IC50 [3]	Kd [5]	KRasGTPgS G12D SPR t1/2 [5]	Kd [6]	KRasGTPgS G12V SPR t1/2 [6]	IC50 ([1]; Homo sapiens, SW-620, 168 h)	cellular activities against certain tumors [7]	IC50 ([2]; Homo sapiens, NCI-H358, 168 h)	binding affinities [8]	Kd (G12V GDP KRAS (aa2-184))	Kd (G12C GDP KRAS (aa2-184))	Kd (G12D GDP KRAS (aa1-185))	Kd [9]
C#Cc1c(F)c(F)cc2cc(O)cc(-c3nc4c5c(nc(OC[C@@]67CCCN6C[C@H](F)C7)nc5c3F)N3CCCC[C@H]3CO4)c12 [Example 32, 5-ethynyl-6,7-difluoro-4-[(8aS)-4-fluoro-2-{[(2R,7aS)-2-fluorotetrahydro-1H-pyrrolizin-7a(5H)-yl]methoxy}-8,8a,9,10,11,12-hexahydro-7-oxa-1,3,6,12a-tetraazabenzo[4,5]cyclohepta[1,2,3-de]naphthalen-5-yl]naphthalen-2-ol]	45 nM	48 nM	2.1 nM																	
C#Cc1c(F)c(F)cc2cc(O)cc(-c3nc4c5c(nc(OC[C@@]67CCCN6C[C@H](F)C7)nc5c3F)N3CCCC[C@H]3CO4)c12 [Example 33, 5-ethynyl-6,7-difluoro-4-[(8aS)-4-fluoro-2-{[(2R,7aS)-2-fluorotetrahydro-1H-pyrrolizin-7a(5H)-yl]methoxy}-8,8a,9,10,11,12-hexahydro-7-oxa-1,3,6,12a-tetraazabenzo[4,5]cyclohepta[1,2,3-de]naphthalen-5-yl]naphthalen-2-ol]	6.6 nM	3.9 nM		0.168 nM	12.7 h	0.205 nM	17.6 h	1.1 nM	0.119 nM	9.9 h	0.172 nM	12.7 h								
C#Cc1c(F)ccc2cc(O)cc(-c3nc4c5c(nc(OC[C@@]67CCCN6C/C(=C/F)C7)nc5c3F)N3CCCOC[C@H]3CO4)c12 [Example 34, 5-ethynyl-6-fluoro-4-[(8aS)-4-fluoro-2-{[(2E,7aS)-2-(fluoromethylidene)tetrahydro-1H-pyrrolizin-7a(5H)-yl]methoxy}-8a,9,12,13-tetrahydro-8H,11H-7,10-dioxa-1,3,6,13a-tetraazanaphtho[1,8-ab]heptalen-5-yl]naphthalen-2-ol]			< 0.5 nM	< 0.0106 nM	>192.7 h	< 0.0145 nM	>192.7 h		< 0.0061 nM	>192.7 h	< 0.0097 nM	>192.7 h	2.3 nM	may enhance	1.2 nM	may enhance				
C=C1CN2CCC[C@@]2(COc2nc3c4c(nc(-c5cc(O)cc6ccc(F)c(CC)c56)c(F)c4n2)OC[C@@H]2COCCCN32)C1 [Example 35, 5-ethyl-6-fluoro-4-[(8aS)-4-fluoro-2-{[(7aS)-2-methylidenetetrahydro-1H-pyrrolizin-7a(5H)-yl]methoxy}-8a, 9,12,13-tetrahydro-8H,11H-7,10-dioxa-1,3,6,13a-tetraazanaphtho[1,8-ab]heptalen-5-yl]naphthalen-2-ol]			< 0.7 nM	0.184 nM	12.4 h	0.181 nM	17.8 h		0.092 nM	11.3 h	0.209 nM	10.3 h	3.8 nM		2.3 nM		0.048 nM	0.009 nM	0.011 nM	0.007 nM
C#Cc1c(F)ccc2cc(O)cc(-c3nc4c5c(nc(OC[C@@]67CCCN6CC(=C)C7)nc5c3F)N3CCCC[C@H]3CO4)c12 [Example 36, 5-ethynyl-6-fluoro-4-[(8aS)-4-fluoro-2-{[(7aS)-2-methylidenetetrahydro-1H-pyrrolizin-7a(5H)-yl]methoxy}-8,8a,9,10,11,12-hexahydro-7-oxa-1,3,6,12a-tetraazabenzo[4,5]cyclohepta[1,2,3-de]naphthalen-5-yl]naphthalen-2-ol]			2.7 nM	0.475 nM	6.0 h	0.372 nM	11.0 h		0.404 nM	3.6 h	0.316 nM	8.9 h	18.7 nM		13.1 nM		0.286 nM	0.067 nM	0.289 nM	0.04 nM
C#Cc1c(F)ccc2cc(O)cc(-c3nc4c5c(nc(OC[C@@]67CCCN6CC(=C)C7)nc5c3F)N(CC)CCO4)c12 [Example 37, 4-(10-ethyl-4-fluoro-2-{[(7aS)-2-methylidenetetrahydro-1H-pyrrolizin-7a(5H)-yl]methoxy}-9,10-dihydro-8H-7-oxa-1,3,6,10-tetraazacyclohepta[1,2,3-de]naphthalen-5-yl)-5-ethynyl-6-fluoronaphthalen-2-ol]			18.3 nM	3.5 nM	0.3 h	3.02 nM	0.4 h		1.27 nM	0.4 h	2.07 nM	0.4 h	138 nM		40.5 nM		0.056 nM	0.01 nM	0.018 nM	0.015 nM
